ChEMBL document CHEMBL4619775, “2-Arylbenzo[d]oxazole Phosphinate Esters as Second-Generation Modulators of Utrophin for the Treatment of Duchenne Muscular Dystrophy” (J Med Chem, 2020)
≈ marks a conversion by molar mass, not a printed value. Values belong to the compound of their own block, whether it stands above or below them. Calls of active or inactive are those of the source. The rule behind the calls is not given here.

Legend:
[1] = Intrinsic clearance in mouse hepatocytes assessed per 10^6 cells
[2] = Apparent permeability from apical to basolateral side in human Caco2; settings: Caco-2
[3] = Apparent permeability from basolateral to apical side in human Caco2; settings: Caco-2
[4] = Stability in mouse hepatocytes assessed as half life
[5] = Solubility of compound by turbidimetric assay
[6] = Plasma protein binding in mouse
[7] = Microsomal stability in human liver microsomes assessed as half life
[8] = Microsomal stability in mouse liver microsomes assessed as half life
[9] = Plasma protein binding in human
[10] = Intrinsic clearance in human liver microsomes
[11] = Intrinsic clearance in mouse liver microsomes
[12] = Drug level in rat treated with methyl ethyl(2-(3-(trifluoromethyl)phenyl)benzo[d]oxazol-5-yl)phosphinate assessed as compound formation; assay type: ADME; settings: in vivo
[13] = Aqueous kinetic solubility of the compound; settings: buffer
Mus musculus [14] = species on record: Mus musculus; assay: Upregulation of utrophin expression in dystrophin-deficient mouse myoblasts at 10 uM after 72 hrs by Western blot analysis; assay type: functional
in vivo [15] = settings: mdx, mouse, iv, 1 mg/kg
[16] = Volume of distribution in mdx mouse at 1 mg/kg, iv; settings: in vivo
[17] = Drug metabolism in mouse hepatocytes assessed as interconversion to opposite enantiomeric form after 60 mins; settings: 1 h
[18] = mouse, in vivo, po, 5 mg/kg, 24 h
[19] = mouse, in vivo, po, 5 mg/kg, 168 h
[20] = mouse, in vivo, iv, 1 mg/kg
[21] = mouse, in vivo, po, 5 mg/kg, 24 h; remark: listed apart in the source
[22] = mouse, in vivo, po, 5 mg/kg, 168 h; remark: listed apart in the source
Mus musculus [23] = assay: Protection against stretch-induced damage in mdx C57BL/10 mouse assessed as improvement in muscle resistance at 30 mg/kg, po qd for 5 weeks; assay type: functional
[24] = Drug metabolism in human hepatocytes assessed as interconversion to opposite enantiomeric form after 60 mins; settings: 1 h
[25] = Half life in mdx mouse at 5 mg/kg, po after 1 day; settings: in vivo, t1/2
[26] = mouse, in vivo, po, 5 mg/kg, 24 h; remark: listed apart in the source
Mus musculus [27] = assay: Protection against DMD in mdx C57BL/10 mouse assessed as force drop in extensor digitorum longus muscle at 30 mg/kg, po qd for 5 weeks measured post-last dose (reference value: 44.9%); assay type: functional
in vivo [28] = settings: mdx, mouse, po, 5 mg/kg, F
Mus musculus [29] = species on record: Mus musculus; assay: Upregulation of utrophin expression in dystrophin-deficient mouse myoblasts after 72 hrs by Western blot analysis; assay type: functional
[30] = mouse, in vivo, po, 5 mg/kg, 168 h; remark: listed apart in the source
[31] = biological target: 5-hydroxytryptamine receptor 2B (Homo sapiens, UniProt P41595); assay: Antagonist activity at human Gq-coupled 5HT2B receptor expressed in HEK293 cells assessed as inhibition of serotonin-induced calcium mobilization by calcium-sensitive dye based FLIPR assay; assay type: functional, cell-based
[32] = mouse, in vivo, iv, 1 mg/kg; remark: listed apart in the source
[33] = Drug metabolism in human hepatocytes assessed as compound racemization after 60 mins; settings: 1 h
[34] = Drug metabolism in mouse hepatocytes assessed as compound racemization after 60 mins; settings: 1 h
[35] = Stability in human hepatocytes assessed as half life after 60 mins
[36] = Intrinsic clearance in mouse hepatocytes after 60 mins; settings: 1 h
[37] = Stability in mouse hepatocytes assessed as half life after 60 mins
[38] = Intrinsic clearance in human hepatocytes after 60 mins; settings: 1 h

Sequence of 5-hydroxytryptamine receptor 2B (P41595 whole entry): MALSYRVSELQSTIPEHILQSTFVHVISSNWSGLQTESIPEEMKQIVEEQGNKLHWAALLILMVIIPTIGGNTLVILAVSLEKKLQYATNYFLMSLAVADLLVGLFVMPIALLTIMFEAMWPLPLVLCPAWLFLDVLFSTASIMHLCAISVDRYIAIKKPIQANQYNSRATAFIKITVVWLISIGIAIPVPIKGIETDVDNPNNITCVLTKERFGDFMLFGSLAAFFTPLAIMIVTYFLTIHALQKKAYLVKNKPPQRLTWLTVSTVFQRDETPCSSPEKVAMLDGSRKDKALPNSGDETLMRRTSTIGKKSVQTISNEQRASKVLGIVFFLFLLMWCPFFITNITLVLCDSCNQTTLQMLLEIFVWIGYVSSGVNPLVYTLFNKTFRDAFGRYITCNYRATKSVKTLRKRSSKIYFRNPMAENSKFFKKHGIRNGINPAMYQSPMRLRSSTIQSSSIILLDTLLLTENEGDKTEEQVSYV

hepatocyte CLint [1]: 32.8 µL/min/1e6 cells
Papp A→B [2]: 6.38 ×10⁻⁶ cm/s
Papp B→A [3]: 3.98 ×10⁻⁶ cm/s
half-life [4]: 0.35 h
Structure (SMILES): CCP(=O)(OC1CCC1)c1ccc2oc(-c3cccc(C(F)(F)F)c3)nc2c1 (configuration not stated)

solubility kinetic [5]: 3 to 10 µM (≈ 1.09 to 3.64 µg/mL)
Structure (SMILES): O=S1(=O)CCCN1c1ccc2oc(-c3ccc4ccccc4c3)nc2c1

fraction unbound [6]: 0.17
half-life ([7]; liver microsomes): > 17.1 h
solubility kinetic [5]: > 100 µM
half-life ([8]; liver microsomes): 0.45 h
fraction unbound [9]: 0.04
Structure (SMILES): COP(=O)(c1ccc2nc(-c3ccc(F)cc3)oc2c1)C(C)C (configuration not stated)

solubility kinetic [5]: 1 to 3 µM (≈ 0.33 to 0.991 µg/mL)
Structure (SMILES): CC(C)C(=O)Nc1ccc2oc(-c3ccc4ccccc4c3)nc2c1

solubility kinetic [5]: 3 to 10 µM (≈ 0.907 to 3.02 µg/mL)
Structure (SMILES): CC(=O)Nc1ccc2oc(-c3ccc4ccccc4c3)nc2c1

fraction unbound [6]: 0.16
microsomal CLint ([10]; liver microsomes): 2.41 µL/min/mg
half-life ([7]; liver microsomes): 9.58 h
solubility kinetic [5]: > 100 µM
half-life ([8]; liver microsomes): 0.6 h
fraction unbound [9]: 0.08
microsomal CLint ([11]; liver microsomes): 39.1 µL/min/mg
Structure (SMILES): CCOP(=O)(CC)c1ccc2oc(-c3ccc(F)cc3)nc2c1 (configuration not stated)

Drug uptake [12]: Active
hepatocyte CLint [1]: < 2.89 µL/min/1e6 cells
solubility kinetic [13]: 337 µM (≈ 120 µg/mL)
fraction unbound [9]: 0.01
half-life [4]: 4 h
Structure (SMILES): CCP(=O)(O)c1ccc2oc(-c3cccc(C(F)(F)F)c3)nc2c1

hepatocyte CLint [1]: 8.65 µL/min/1e6 cells
Papp A→B [2]: 10.6 ×10⁻⁶ cm/s
Papp B→A [3]: 5.75 ×10⁻⁶ cm/s
half-life [4]: 1.33 h
Structure (SMILES): CCP(=O)(OC1CC1)c1ccc2oc(-c3cccc(C(F)(F)F)c3)nc2c1 (configuration not stated)

fraction unbound [6]: 0.01
hepatocyte CLint [1]: 8.92 µL/min/1e6 cells
solubility kinetic [13]: 652 µM (≈ 258 µg/mL)
half-life [4]: 1.3 h
Structure (SMILES): CCP(=O)(OC1CC1)c1ccc2nc(-c3cccc(C(F)(F)F)c3)oc2c1 (configuration not stated)

fraction unbound [6]: 0.23
solubility kinetic [5]: > 100 µM
half-life ([8]; liver microsomes): > 73.3 h
fraction unbound [9]: 0.1
Structure (SMILES): CCP(=O)(OC)c1ccc2nc(-c3cnc4ccccc4c3)oc2c1 (configuration not stated)

Structure (SMILES): CCP(=O)(OC)c1ccc2nc(-c3ccc(F)cc3)oc2c1 (configuration not stated)
Activity (Mus musculus [14]): inactive

Structure (SMILES): CCP(=O)(OC)c1ccc2oc(-c3ccc(F)cc3)nc2c1 (racemic) [listing 1 of 2 here]
PPB [6]: 75%
Cmax (in vivo [15]): 562 ng/mL
Vd ([16]; mdx, Vd): 1.46 L/kg
Drug metabolism [17]: < 1%
AUC [18]: 1660 ng·h/mL
half-life ([7]; microsomes): 6.38 h
Cmax [19]: 566 ng/mL
AUC [20]: 431 ng·h/mL
solubility kinetic [5]: > 100 µM
F [21]: 77.2%
half-life ([8]; microsomes): 1.43 h
AUC [22]: 1160 ng·h/mL
Activity (Mus musculus [23]): 29%
Drug metabolism [24]: < 1%
fraction unbound ([9]; PPB): 0.12
half-life at 24 h [25]: 2.25 h
Cmax [26]: 734 ng/mL
Activity (Mus musculus [27]): 31.8%
bioavailability at 168 h (in vivo [28]): 53.7%

Structure (SMILES): CCP(=O)(OC)c1ccc2oc(-c3ccc(F)cc3)nc2c1 (racemic) [listing 2 of 2 here]
Activity (Mus musculus [29]): Dose-dependent effect

Structure (SMILES): CCP(=O)(OC)c1ccc2oc(-c3cccc(C(F)(F)F)c3)nc2c1 (racemic)
Activity (Mus musculus [29]): Dose-dependent effect

Structure (SMILES): CCP(=O)(OC)c1ccc2oc(-c3ccc(F)cc3)nc2c1 (single isomer, unassigned; (+))
PPB [6]: 80%
AUC [18]: 1570 ng·h/mL
Cmax [19]: 736 ng/mL
AUC [20]: 510 ng·h/mL
F [30]: 63.7%
F [21]: 61.6%
AUC [22]: 1620 ng·h/mL
EC50 [31]: 9.3 µM
Activity (Mus musculus [23]): 35%
Cmax [26]: 542 ng/mL
Activity (Mus musculus [27]): 29.4%

Structure (SMILES): CCP(=O)(OC)c1ccc2oc(-c3ccc(F)cc3)nc2c1 (single isomer, unassigned; (-))
Cmax [32]: 477 ng/mL
PPB [6]: 77%
Vd [16]: 1.58 L/kg
AUC [18]: 444 ng·h/mL
Cmax [19]: 299 ng/mL
AUC [20]: 226 ng·h/mL
Drug metabolism [33]: Metabolite_Notdetected
Drug metabolism [34]: Metabolite_Notdetected
F [30]: 45.4%
F [21]: 39.4%
AUC [22]: 513 ng·h/mL
half-life at 1 h [35]: > 7.67 h
EC50 [31]: 50 µM
PPB [9]: 85%
Cmax [26]: 352 ng/mL
Activity (Mus musculus [27]): 44.4%

fraction unbound [6]: < 0.01
microsomal CLint ([10]; microsomes): 14.4 µL/min/mg
CLH [36]: 54 µL/min
half-life ([7]; microsomes): 1.6 h
Drug metabolism [33]: Metabolite_Notdetected
solubility kinetic [5]: 3 to 10 µM (≈ 1.01 to 3.37 µg/mL)
Drug metabolism [34]: Metabolite_Notdetected
half-life ([8]; microsomes): 1.1 h
half-life at 1 h [35]: 0.75 h
half-life at 1 h [37]: 0.433 h
CLH [38]: 31 µL/min
microsomal CLint ([11]; microsomes): 21 µL/min/mg
Structure (SMILES): CCS(=O)(=O)c1ccc2oc(-c3ccc4ccccc4c3)nc2c1 [EZUTROMID]
